# Source: ChEMBL document CHEMBL5465560, “Selectivity Literature for EUbOPEN Chemogenomic Library” (2024)
# Assays:
# [1] = target: Cyclin-dependent kinase 16 (Homo sapiens) (UniProt Q00536); experiment: Selectivity interaction (Kinase panel (KiNativ target engagement assay in Jurkat cells)) EUB0001635a CDK16; format: cell-based; conditions: Selectivity number of off-targets 0.0, Selectivity number of targets 233.0, Source Knowledge https://www.sciencedirect.com/science/article/pii/S2451945619300674?via%3Dihub, at 1 µM
# Chain of Cyclin-dependent kinase 16 (Homo sapiens) (Q00536 whole entry): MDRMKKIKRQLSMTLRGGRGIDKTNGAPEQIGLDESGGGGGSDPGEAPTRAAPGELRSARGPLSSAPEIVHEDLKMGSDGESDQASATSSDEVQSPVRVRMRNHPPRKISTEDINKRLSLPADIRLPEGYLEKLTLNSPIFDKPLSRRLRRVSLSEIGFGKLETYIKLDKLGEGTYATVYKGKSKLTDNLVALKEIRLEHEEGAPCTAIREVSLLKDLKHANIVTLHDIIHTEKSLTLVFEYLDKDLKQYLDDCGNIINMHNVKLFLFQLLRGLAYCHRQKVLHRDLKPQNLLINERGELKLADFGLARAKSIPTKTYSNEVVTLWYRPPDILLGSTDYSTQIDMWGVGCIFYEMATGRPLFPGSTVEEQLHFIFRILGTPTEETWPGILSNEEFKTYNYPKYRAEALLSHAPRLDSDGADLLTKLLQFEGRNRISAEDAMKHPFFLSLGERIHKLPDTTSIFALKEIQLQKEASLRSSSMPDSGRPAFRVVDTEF
# [2] = target: T1, Serine/threonine-protein kinase 4 (Homo sapiens) (UniProt Q13043); experiment: Selectivity interaction (KinomeScan (DiscoverX)) EUB0000229b STK4; conditions: at 10 µM
# T1 sequence (whole entry): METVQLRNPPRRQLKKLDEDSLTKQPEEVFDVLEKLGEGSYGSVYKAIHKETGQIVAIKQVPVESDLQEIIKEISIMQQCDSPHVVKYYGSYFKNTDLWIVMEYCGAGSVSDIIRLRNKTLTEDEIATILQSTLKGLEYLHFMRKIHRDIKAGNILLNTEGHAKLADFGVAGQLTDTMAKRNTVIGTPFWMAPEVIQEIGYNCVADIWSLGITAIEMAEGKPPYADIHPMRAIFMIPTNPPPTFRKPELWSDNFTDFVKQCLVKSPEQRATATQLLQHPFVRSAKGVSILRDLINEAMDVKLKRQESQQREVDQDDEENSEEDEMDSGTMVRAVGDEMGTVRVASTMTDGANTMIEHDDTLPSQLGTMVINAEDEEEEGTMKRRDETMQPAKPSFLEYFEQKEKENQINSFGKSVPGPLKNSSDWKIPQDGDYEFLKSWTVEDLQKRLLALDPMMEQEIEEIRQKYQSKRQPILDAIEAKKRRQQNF
# [3] = target: T2, Histone-lysine N-methyltransferase EHMT2 (Homo sapiens) (UniProt Q96KQ7); conditions: at 1 µM
# T2 sequence (whole entry): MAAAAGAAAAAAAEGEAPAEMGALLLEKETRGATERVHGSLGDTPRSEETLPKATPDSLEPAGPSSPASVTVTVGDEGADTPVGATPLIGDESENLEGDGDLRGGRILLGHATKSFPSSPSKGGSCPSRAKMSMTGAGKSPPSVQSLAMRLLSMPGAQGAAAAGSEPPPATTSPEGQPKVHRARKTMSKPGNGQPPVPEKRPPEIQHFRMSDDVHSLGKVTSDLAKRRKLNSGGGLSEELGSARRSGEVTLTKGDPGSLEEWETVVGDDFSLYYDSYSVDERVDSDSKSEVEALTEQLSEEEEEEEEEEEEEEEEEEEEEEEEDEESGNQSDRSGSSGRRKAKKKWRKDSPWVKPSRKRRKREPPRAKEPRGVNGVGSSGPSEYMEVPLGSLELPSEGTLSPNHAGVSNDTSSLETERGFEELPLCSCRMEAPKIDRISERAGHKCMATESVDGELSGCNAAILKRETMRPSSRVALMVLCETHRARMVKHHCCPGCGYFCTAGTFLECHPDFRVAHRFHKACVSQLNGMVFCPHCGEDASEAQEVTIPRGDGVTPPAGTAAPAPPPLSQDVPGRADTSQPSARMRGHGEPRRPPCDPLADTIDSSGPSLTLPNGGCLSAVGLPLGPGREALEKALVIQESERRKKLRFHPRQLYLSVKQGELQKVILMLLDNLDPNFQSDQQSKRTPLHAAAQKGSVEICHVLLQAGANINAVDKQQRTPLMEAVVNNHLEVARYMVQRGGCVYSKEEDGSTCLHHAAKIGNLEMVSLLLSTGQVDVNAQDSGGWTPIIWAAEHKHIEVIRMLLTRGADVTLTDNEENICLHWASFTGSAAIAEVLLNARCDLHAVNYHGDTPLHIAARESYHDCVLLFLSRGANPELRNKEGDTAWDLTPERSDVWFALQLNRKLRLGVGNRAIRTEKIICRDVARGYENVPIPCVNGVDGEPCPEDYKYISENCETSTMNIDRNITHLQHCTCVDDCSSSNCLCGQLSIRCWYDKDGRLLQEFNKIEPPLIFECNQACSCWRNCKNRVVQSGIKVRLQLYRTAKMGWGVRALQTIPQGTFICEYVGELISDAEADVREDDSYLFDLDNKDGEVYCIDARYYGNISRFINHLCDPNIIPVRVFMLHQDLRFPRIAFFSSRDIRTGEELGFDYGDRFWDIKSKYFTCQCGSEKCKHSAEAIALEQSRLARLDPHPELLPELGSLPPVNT
# [4] = target: Phosphatidylinositol 4-kinase type 2-beta (Homo sapiens) (UniProt Q8TCG2); experiment: Selectivity interaction (Adapta Assay) EUB0001632a PI4K2B; conditions: at 10 µM
# Chain of Phosphatidylinositol 4-kinase type 2-beta (Homo sapiens) (Q8TCG2 whole entry): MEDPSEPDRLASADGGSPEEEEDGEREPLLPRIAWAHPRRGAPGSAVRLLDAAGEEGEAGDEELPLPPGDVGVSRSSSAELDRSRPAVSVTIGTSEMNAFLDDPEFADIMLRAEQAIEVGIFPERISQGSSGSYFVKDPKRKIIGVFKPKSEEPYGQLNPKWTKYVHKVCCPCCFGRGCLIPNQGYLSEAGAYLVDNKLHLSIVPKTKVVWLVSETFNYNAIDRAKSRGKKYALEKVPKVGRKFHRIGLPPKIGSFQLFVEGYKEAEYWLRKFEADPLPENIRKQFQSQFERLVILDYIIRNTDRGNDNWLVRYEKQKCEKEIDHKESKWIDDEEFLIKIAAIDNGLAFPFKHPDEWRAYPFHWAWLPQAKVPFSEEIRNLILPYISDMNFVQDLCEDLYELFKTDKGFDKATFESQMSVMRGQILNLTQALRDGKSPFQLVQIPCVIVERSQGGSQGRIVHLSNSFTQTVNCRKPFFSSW
# [5] = target: Dual specificity protein kinase CLK2 (Homo sapiens, UniProt P49760); experiment: Selectivity interaction (KinomeScan (DiscoverX)) EUB0000666a CLK2; conditions: at 10 µM
# [6] = target: Tyrosine-protein kinase receptor Tie-1 (Homo sapiens) (UniProt P35590); experiment: Selectivity interaction (KinomeScan (DiscoverX)) EUB0001868a TIE1; conditions: at 1 µM
# Chain of Tyrosine-protein kinase receptor Tie-1 (Homo sapiens) (P35590 whole entry): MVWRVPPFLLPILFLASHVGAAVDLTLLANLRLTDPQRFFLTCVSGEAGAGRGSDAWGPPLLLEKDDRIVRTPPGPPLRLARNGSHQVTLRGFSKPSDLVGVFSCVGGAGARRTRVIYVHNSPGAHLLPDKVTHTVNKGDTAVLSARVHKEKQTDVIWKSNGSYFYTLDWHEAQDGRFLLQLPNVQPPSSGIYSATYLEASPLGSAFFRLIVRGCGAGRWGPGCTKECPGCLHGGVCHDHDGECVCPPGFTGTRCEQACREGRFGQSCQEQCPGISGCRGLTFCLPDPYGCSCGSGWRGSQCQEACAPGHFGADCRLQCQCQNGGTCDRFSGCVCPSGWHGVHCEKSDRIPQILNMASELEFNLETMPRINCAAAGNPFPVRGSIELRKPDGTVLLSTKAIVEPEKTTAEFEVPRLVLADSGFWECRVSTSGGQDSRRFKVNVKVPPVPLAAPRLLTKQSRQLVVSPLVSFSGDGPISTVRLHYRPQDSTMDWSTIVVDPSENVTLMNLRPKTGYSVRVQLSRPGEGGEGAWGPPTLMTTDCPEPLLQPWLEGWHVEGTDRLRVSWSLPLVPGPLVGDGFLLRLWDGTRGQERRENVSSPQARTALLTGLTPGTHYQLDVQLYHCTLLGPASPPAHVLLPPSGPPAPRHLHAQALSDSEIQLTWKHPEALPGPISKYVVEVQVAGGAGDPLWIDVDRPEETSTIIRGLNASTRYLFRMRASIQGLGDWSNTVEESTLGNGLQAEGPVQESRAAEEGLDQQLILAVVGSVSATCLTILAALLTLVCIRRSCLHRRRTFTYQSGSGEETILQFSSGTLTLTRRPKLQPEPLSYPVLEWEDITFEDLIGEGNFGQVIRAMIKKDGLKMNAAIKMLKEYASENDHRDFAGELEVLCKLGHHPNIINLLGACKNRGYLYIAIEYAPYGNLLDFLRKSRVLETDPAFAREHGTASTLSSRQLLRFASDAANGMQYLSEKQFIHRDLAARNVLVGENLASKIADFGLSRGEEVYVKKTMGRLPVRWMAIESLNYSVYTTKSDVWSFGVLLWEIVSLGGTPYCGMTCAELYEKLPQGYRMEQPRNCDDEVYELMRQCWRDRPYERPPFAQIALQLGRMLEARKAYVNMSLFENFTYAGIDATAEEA
# hERG (KCNH2) = hERG (KCNH2) (Homo sapiens, UniProt Q12809); experiment: Selectivity interaction (Panel of kinases, GPCRs, ion channels and transporters (enzymatic assay)) EUB0000223bCl KCNH2
# Chain of hERG (KCNH2) (Q12809 whole entry): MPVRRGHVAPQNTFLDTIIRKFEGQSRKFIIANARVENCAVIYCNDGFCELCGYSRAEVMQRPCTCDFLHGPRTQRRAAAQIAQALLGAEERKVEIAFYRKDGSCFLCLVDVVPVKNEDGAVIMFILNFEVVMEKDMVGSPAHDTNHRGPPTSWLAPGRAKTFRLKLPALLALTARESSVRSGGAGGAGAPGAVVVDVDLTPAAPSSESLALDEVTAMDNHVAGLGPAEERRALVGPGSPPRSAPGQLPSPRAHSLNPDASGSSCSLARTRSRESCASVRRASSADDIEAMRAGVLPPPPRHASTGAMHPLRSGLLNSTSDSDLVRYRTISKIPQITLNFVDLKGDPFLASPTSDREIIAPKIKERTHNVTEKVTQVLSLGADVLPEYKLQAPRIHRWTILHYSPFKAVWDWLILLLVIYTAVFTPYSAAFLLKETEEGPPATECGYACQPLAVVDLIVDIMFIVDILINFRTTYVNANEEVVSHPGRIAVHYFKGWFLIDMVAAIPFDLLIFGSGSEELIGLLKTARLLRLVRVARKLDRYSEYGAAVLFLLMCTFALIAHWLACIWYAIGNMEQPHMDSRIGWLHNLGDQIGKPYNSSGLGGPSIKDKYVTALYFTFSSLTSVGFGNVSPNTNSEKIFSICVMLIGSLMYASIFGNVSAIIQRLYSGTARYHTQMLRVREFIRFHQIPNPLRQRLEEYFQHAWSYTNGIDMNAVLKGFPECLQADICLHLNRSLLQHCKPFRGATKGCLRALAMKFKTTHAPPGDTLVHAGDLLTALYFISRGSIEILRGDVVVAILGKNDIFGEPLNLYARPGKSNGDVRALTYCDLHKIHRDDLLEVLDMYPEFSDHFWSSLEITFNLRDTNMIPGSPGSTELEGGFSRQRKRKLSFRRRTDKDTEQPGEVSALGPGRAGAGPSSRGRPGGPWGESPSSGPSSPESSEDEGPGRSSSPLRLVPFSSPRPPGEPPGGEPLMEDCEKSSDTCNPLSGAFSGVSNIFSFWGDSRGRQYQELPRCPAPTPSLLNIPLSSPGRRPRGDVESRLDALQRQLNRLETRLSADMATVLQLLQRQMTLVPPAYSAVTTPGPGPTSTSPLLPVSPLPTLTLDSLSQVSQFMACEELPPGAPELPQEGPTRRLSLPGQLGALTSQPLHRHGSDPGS
# [7] = target: Dual specificity protein kinase CLK1 (Homo sapiens, UniProt P49759); experiment: Selectivity interaction (Kinase panel (Invitrogen)) EUB0000639a CLK1; conditions: at 200 nM
# [8] = target: T3, Scaffold protein ILK (Homo sapiens) (UniProt Q13418); experiment: Selectivity interaction (ActivX KiNativ screen (kinase selectivity in THP-1 cell lysates)) EUB0000639a ILK; format: subcellular; conditions: lysate, at 1 µM
# T3 sequence (whole entry): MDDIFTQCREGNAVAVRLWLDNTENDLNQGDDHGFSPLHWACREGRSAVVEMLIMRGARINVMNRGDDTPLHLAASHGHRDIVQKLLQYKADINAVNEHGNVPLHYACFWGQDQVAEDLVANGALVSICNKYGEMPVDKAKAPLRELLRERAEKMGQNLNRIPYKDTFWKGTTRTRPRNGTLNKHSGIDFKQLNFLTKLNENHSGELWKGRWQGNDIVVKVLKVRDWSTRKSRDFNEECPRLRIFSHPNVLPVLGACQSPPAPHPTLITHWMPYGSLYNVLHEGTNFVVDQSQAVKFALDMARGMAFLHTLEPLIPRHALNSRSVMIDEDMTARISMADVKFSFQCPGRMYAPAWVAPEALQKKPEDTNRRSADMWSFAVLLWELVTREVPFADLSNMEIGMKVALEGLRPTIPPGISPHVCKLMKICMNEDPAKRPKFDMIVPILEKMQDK
# [9] = system: eIF-2-alpha kinase GCN2 (Homo sapiens), Q9P2K8 [S808G]; experiment: Selectivity interaction (KinomeScan (DiscoverX)) EUB0000092b EIF2AK4; conditions: at 10 µM
# Chain of eIF-2-alpha kinase GCN2 (Homo sapiens), Q9P2K8 [S808G] (Q9P2K8 whole entry S808G): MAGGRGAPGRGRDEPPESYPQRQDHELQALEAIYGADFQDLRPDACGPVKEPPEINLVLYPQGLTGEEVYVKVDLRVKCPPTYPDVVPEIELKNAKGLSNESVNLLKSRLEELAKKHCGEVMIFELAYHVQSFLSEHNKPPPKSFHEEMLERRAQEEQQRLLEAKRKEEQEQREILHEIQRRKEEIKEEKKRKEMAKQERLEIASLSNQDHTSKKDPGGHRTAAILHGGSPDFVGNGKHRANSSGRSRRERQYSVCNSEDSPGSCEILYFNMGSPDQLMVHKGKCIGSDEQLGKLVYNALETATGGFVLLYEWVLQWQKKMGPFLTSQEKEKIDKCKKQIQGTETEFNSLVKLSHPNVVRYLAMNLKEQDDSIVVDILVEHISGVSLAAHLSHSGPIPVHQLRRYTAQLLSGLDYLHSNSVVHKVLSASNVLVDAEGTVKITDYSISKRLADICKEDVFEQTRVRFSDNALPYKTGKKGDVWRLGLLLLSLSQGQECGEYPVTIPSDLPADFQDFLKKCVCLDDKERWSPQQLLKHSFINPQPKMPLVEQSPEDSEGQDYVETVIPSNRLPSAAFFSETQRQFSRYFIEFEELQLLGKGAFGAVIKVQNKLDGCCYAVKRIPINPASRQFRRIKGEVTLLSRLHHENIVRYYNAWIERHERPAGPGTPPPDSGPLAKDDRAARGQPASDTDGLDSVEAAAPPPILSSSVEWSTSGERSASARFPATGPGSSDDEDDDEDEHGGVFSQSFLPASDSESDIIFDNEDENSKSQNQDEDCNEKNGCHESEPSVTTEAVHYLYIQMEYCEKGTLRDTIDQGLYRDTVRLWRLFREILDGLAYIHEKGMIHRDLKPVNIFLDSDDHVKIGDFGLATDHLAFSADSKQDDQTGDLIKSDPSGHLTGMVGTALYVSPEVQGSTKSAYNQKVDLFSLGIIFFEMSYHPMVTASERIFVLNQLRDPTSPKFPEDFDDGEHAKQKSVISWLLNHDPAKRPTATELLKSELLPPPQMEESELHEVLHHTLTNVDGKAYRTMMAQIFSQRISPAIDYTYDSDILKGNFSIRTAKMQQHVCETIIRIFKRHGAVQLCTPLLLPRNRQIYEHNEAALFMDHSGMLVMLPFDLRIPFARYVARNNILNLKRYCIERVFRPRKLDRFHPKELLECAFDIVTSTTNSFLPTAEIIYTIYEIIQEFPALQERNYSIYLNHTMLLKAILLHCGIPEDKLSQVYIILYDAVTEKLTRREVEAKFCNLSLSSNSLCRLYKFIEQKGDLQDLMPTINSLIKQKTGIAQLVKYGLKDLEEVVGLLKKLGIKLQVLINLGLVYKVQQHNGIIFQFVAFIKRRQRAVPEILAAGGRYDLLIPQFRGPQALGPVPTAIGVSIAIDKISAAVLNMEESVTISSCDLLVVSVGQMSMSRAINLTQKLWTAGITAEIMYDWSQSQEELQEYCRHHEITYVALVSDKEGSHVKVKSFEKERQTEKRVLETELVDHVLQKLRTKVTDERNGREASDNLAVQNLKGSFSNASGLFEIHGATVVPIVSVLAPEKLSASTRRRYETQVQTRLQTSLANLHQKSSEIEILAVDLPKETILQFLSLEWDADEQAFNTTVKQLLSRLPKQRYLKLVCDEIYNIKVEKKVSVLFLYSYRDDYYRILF
smiles,measurement,setting,value
C=CC(=O)Nc1ccc(C(=O)Nc2[nH]nc3c2CN(C(=O)N[C@H](CN(C)C)c2ccccc2)C3(C)C)cc1,% of engagement,[1],2.3%
COc1cc(N(C)c2ccnc3ccc(C(F)(F)F)cc23)cc(OC)c1OC,% binding,[2],99%
CNCCN1CCC(c2cc(CN(C)C(=O)c3cccc(Oc4ccccc4)c3)ccn2)CC1,% activity,[3],> 90%
Cn1cc(-n2cnc3c(NCc4nc5cc(Cl)c(Cl)cc5[nH]4)nc(N4CCOCC4)nc32)cn1,% of inhibition,[4],-1.89%
O=C(NOC[C@H](O)CO)c1ccc(F)c(F)c1Nc1ccc(I)cc1F,% of control,[5],96%
Cc1cc(-c2ccnc(Nc3cnn(C)c3)n2)ccc1CNC(=O)N1CC(OC(C)C)C1,% of control,[6],46%
COc1cc(C(=O)N2CC[C@@H](O)[C@@H](N)C2)cc2nc(-c3cc4ccccc4n3CC3CC3)n(C)c12,XC50,hERG (KCNH2),31.6 µM
CC[C@@H]1[C@H](F)C(=O)N[C@@H]1COc1nccc2cc(C(N)=O)c(OC)cc12 [ZIMLOVISERTIB],% of inhibition,[7],34.5%
same,% of inhibition,[8],-17.5%
CCC(=O)N1CCN(c2ccc(-n3c(=O)ccc4cnc5ccc(-c6cnc7ccccc7c6)cc5c43)cc2C(F)(F)F)CC1,% of control,[9],99%
